# Source: patent US8486977B2, “1,2,3-triazole derivatives for use as stearoyl-CoA desaturase inhibitors” (GlaxoSmithKline LLC, priority 2007, dated 2013)
row,melting point,SMILES
1,119.7 °C,COc1ccc(NC(=O)c2nnn(Cc3ccc(F)cc3)c2C)cc1OC
2,105 °C,Cc1ccc(Cn2nnc(C(=O)Nc3ccc(OCCC(C)C)cc3)c2C)cc1
3,114 °C (dec.),Cc1c(C(=O)Nc2ccc(OCCC(C)C)cc2)nnn1Cc1ccc(C(C)C)cc1
4,156 °C (dec.),COc1ccc(NC(=O)c2nnn(Cc3ccc(C)cc3)c2C)cc1OC
5,197.8 °C,COc1ccc(NC(=O)c2cn(Cc3ccc(F)cc3)nn2)cc1OC
6,173 °C,COc1ccc(NC(=O)c2nnn(Cc3ccc(Br)cc3)c2C)cc1OC
7,192.5 °C,Cc1c(C(=O)Nc2cccc(O)c2)nnn1Cc1ccc(Cl)c(Cl)c1
8,114 °C,Cc1c(C(=O)Nc2ccc(OCCC(C)C)cc2)nnn1Cc1ccc(F)cc1
9,137 °C,Cc1c(C(=O)Nc2ccc(OCCC(C)C)cc2)nnn1Cc1ccc(Br)cc1
10,170 °C,C=C(C)c1ccc(NC(=O)c2nnn(Cc3ccc(Cl)c(Cl)c3)c2C)c(OC)c1
11,124 °C,Cc1c(C(=O)Nc2ccc(OCCC(C)C)cc2)nnn1Cc1ccccc1
12,168.7 °C,"Cc1c(C(=O)Nc2ccc(OCc3ccccc3)cc2)nnn1Cc1ccc(Br)cc1 [Example 3, 1-[(4-Bromophenyl)methyl]-5-methyl-N-{4-[(phenylmethyl)oxy]phenyl}-1H-1,2,3-triazole-4-carboxamide]"
13,139.4 °C,"Cc1c(C(=O)Nc2ccc(OCc3ccccc3)cc2)nnn1Cc1ccc(F)cc1 [Example 4, 1-[(4-Fluorophenyl)methyl]-5-methyl-N-{4-[(phenylmethyl)oxy]phenyl}-1H-1,2,3-triazole-4-carboxamide]"
14,125 °C,"Cc1c(C(=O)Nc2ccc(OCc3ccccc3)cc2)nnn1Cc1ccccc1 [Example 7, 5-Methyl-1-(phenylmethyl)-N-{4-[(phenylmethyl)oxy]phenyl}-1H-1,2,3-triazole-4-carboxamide]"
15,125 °C (dec.),"Cc1c(C(=O)Nc2ccc(OCCC(C)C)cc2)nnn1Cc1ccc(-c2ccccc2Cl)cc1 [Example 9, 1-[(2’-Chloro-4-biphenylyl)methyl]-5-methyl-N-{4-[(3-methylbutyl)oxy]phenyl}-1H-1,2,3-triazole-4-carboxamide]"
16,218 °C,"Cc1c(C(=O)Nc2ccc(-c3ncco3)cc2)nnn1Cc1ccc(Cl)c(Cl)c1 [Example 15, 1-[(3,4-Dichlorophenyl)methyl]-5-methyl-N-[4-(1,3-oxazol-2-yl)phenyl]-1H-1,2,3-triazole-4-carboxamide]"
17,212 °C,"COC(=O)c1ccc(NC(=O)c2nnn(Cc3ccc(Cl)c(Cl)c3)c2C)c(OC)c1 [Example 17, Methyl 4-[({1-[(3,4-dichlorophenyl)methyl]-5-methyl-1H-1,2,3-triazol-4-yl}carbonyl)amino]-3-(methyloxy)benzoate]"
18,203.9 °C,"CNC(=O)c1cccc(NC(=O)c2nnn(Cc3ccc(Cl)c(Cl)c3)c2C)c1 [Example 18, 1-[(3,4-Dichlorophenyl)methyl]-5-methyl-N-{3-[(methylamino)carbonyl]phenyl}-1H-1,2,3-triazole-4-carboxamide]"
19,183.7 °C,"CNC(=O)c1ccc(NC(=O)c2nnn(Cc3ccc(Cl)c(Cl)c3)c2C)cc1 [Example 19, 1-[(3,4-Dichlorophenyl)methyl]-5-methyl-N-{4-[(methylamino)carbonyl]phenyl}-1H-1,2,3-triazole-4-carboxamide]"
20,131.8 °C,"CCOC(=O)c1cccc(NC(=O)c2nnn(Cc3ccc(Cl)c(Cl)c3)c2C)c1 [Example 20, Ethyl 3-[({1-[(3,4-dichlorophenyl)methyl]-5-methyl-1H-1,2,3-triazol-4-yl}carbonyl)amino]benzoate]"
21,203.4 °C,"CC(=O)Nc1cccc(NC(=O)c2nnn(Cc3ccc(Cl)c(Cl)c3)c2C)c1 [Example 21, N-[3-(Acetylamino)phenyl]-1-[(3,4-dichlorophenyl)methyl]-5-methyl-1H-1,2,3-triazole-4-carboxamide]"
22,202.4 °C,"CC(=O)Nc1ccc(NC(=O)c2nnn(Cc3ccc(Cl)c(Cl)c3)c2C)cc1 [Example 22, N-[4-(Acetylamino)phenyl]-1-[(3,4-dichlorophenyl)methyl]-5-methyl-1H-1,2,3-triazole-4-carboxamide]"

row,melting point,SMILES
1,174.3 °C,"Cc1c(CO)cccc1NC(=O)c1nnn(Cc2ccc(Cl)c(Cl)c2)c1C [Example 23, 1-[(3,4-Dichlorophenyl)methyl]-N-[3-(hydroxymethyl)-2-methylphenyl]-5-methyl-1H-1,2,3-triazole-4-carboxamide]"
2,185.2 °C,"Cc1c(C(=O)Nc2cccc(CO)c2)nnn1Cc1ccc(Cl)c(Cl)c1 [Example 24, 1-[(3,4-Dichlorophenyl)methyl]-N-[3-(hydroxymethyl)phenyl]-5-methyl-1H-1,2,3-triazole-4-carboxamide]"
3,203 °C,"COC(=O)c1ccc(OC)c(NC(=O)c2nnn(Cc3ccc(Cl)c(Cl)c3)c2C)c1 [Example 25, Methyl 3-[({1-[(3,4-dichlorophenyl)methyl]-5-methyl-1H-1,2,3-triazol-4-yl}carbonyl)amino]-4-(methyloxy)benzoate]"
4,175.6 °C,"Cc1c(C(=O)Nc2ccc(O)c(CO)c2)nnn1Cc1ccc(Cl)c(Cl)c1 [Example 26, 1-[(3 4 Dichlorophenyl)methyl]-N-[4-hydroxy-3-(hydroxymethyl)phenyl]-5-methyl-1H-1,2,3-triazole-4-carboxamide]"
5,139 °C,"CCOC(=O)Cc1ccc(NC(=O)c2nnn(Cc3ccc(Cl)c(Cl)c3)c2C)cc1 [Example 27, Ethyl {4-[({1-[(3,4-dichlorophenyl)methyl]-5-methyl-1H-1,2,3-triazol-4-yl}carbonyl)amino]phenyl}acetate]"
6,175.9 °C,"COC(=O)c1ccc(NC(=O)c2nnn(Cc3ccc(Cl)c(Cl)c3)c2C)cc1OC [Example 28, Methyl 4-[({1-[(3,4-dichlorophenyl)methyl]-5-methyl-1H-1,2,3-triazol-4-yl}carbonyl)amino]-2-(methyloxy)benzoate]"
7,180 °C,"COC(=O)c1cc(NC(=O)c2nnn(Cc3ccc(Cl)c(Cl)c3)c2C)ccc1O [Example 29, Methyl 5-[({1-[(3,4-dichlorophenyl)methyl]-5-methyl-1H-1,2,3-triazol-4-yl}carbonyl)amino]-2-hydroxybenzoate]"
8,116 °C,"COC(=O)Cc1cccc(NC(=O)c2nnn(Cc3ccc(Cl)c(Cl)c3)c2C)c1 [Example 30, Methyl {3-[({1-[(3,4-dichlorophenyl)methyl]-5-methyl-1H-1,2,3-triazol-4-yl}carbonyl)amino]phenyl}acetate]"
9,169.8 °C,"COC(=O)c1cc(NC(=O)c2nnn(Cc3ccc(Cl)c(Cl)c3)c2C)ccc1F [Example 32, Methyl 5-[({1-[(3,4-dichlorophenyl)methyl]-5-methyl-1H-1,2,3-triazol-4-yl}carbonyl)amino]-2-fluorobenzoate]"
10,218.2 °C,"COc1ccc(C(N)=O)cc1NC(=O)c1nnn(Cc2ccc(Cl)c(Cl)c2)c1C [Example 33, N-[5-(Aminocarbonyl)-2-(methyloxy)phenyl]-1-[(3,4-dichlorophenyl)methyl]-5-methyl-1H-1,2,3-triazole-4-carboxamide]"
11,206.4 °C,"COC(=O)c1ccc(Cl)c(NC(=O)c2nnn(Cc3ccc(Cl)c(Cl)c3)c2C)c1 [Example 34, Methyl 4-chloro-3-[({1-[(3,4-dichlorophenyl)methyl]-5-methyl-1H-1,2,3-triazol-4-yl}carbonyl)amino]benzoate]"
12,133 °C,"COC(=O)Cc1ccc(OC)c(NC(=O)c2nnn(Cc3ccc(Cl)c(Cl)c3)c2C)c1 [Example 35, Methyl [3-[({1-[(3,4-dichlorophenyl)methyl]-5-methyl-1H-1,2,3-triazol-4-yl}carbonyl)amino]-4-(methyloxy)phenyl]acetate]"
13,195.7 °C,"COC(=O)c1ccc(F)c(NC(=O)c2nnn(Cc3ccc(Cl)c(Cl)c3)c2C)c1 [Example 36, Methyl 3-[({1-[(3,4-dichlorophenyl)methyl]-5-methyl-1H-1,2,3-triazol-4-yl}carbonyl)amino]-4-fluorobenzoate]"
14,105.8 °C,"Cc1c(C(=O)Nc2cccc(CO)c2)nnn1Cc1ccccc1 [Example 37, N-[3-(Hydroxymethyl)phenyl]-5-methyl-1-(phenylmethyl)-1H-1,2,3-triazole-4-carboxamide]"
15,149.1 °C,"Cc1c(C(=O)Nc2ccc(CO)cc2)nnn1Cc1ccccc1 [Example 38, N-[4-(Hydroxymethyl)phenyl]-5-methyl-1-(phenylmethyl)-1H-1,2,3-triazole-4-carboxamide]"
16,157 °C,"Cc1c(CO)cccc1NC(=O)c1nnn(Cc2ccccc2)c1C [Example 39, N-[3-(Hydroxymethyl)-2-methylphenyl]-5-methyl-1-(phenylmethyl)-1H-1,2,3-triazole-4-carboxamide]"
17,159 °C,"Cc1c(C(=O)Nc2cccc(CO)c2)nnn1Cc1cc(Cl)cc(Cl)c1 [Example 40, 1-[(3,5-Dichlorophenyl)methyl]-N-[3-(hydroxymethyl)phenyl]-5-methyl-1H-1,2,3-triazole-4-carboxamide]"
18,213 °C,"COC(=O)c1ccc(OC)c(NC(=O)c2nnn(Cc3cc(Cl)cc(Cl)c3)c2C)c1 [Example 41, Methyl 3-[({1-[(3,5-dichlorophenyl)methyl]-5-methyl-1H-1,2,3-triazol-4-yl}carbonyl)amino]-4-(methyloxy)benzoate]"
19,185 °C,"Cc1c(CO)cccc1NC(=O)c1nnn(Cc2cc(Cl)cc(Cl)c2)c1C [Example 42, 1-[(3,5-Dichlorophenyl)methyl]-N-[3-(hydroxymethyl)-2-methylphenyl]-5-methyl-1H-1,2,3-triazole-4-carboxamide]"
20,188.4 °C,"CC(=O)NCc1cccc(NC(=O)c2nnn(Cc3ccc(Cl)c(Cl)c3)c2C)c1 [Example 43, N-{3-[(Acetylamino)methyl]phenyl}-1-[(3,4-dichlorophenyl)methyl]-5-methyl-1H-1,2,3-triazole-4-carboxamide]"
21,145 °C,"Cc1c(C(=O)Nc2cccc(C(C)O)c2)nnn1Cc1ccc(Cl)c(Cl)c1 (stereo not shown) [Example 44, 1-[(3,4-Dichlorophenyl)methyl]-N-[3-(1-hydroxyethyl)phenyl]-5-methyl-1H-1,2,3-triazole-4-carboxamide]"
